Data published in US20100184783A1, “COMBINATION FOR USE IN THE TREATMENT OF INFLAMMATORY ATHEROSCLEROSIS COMPRISING A MAST CELL INHIBITOR AND A PPAR GAMMA AGONIST” (priority 2007, published 2010).

Tested on: human macrophage cell-line MonoMac-6 (MM6)
Assay: Inhibition of macrophage proliferation (MM6 cell proliferation, WST-1 reagent)
Format: cell-based
Conditions: 46 hours, mean, n=5
Method: Cells from the human macrophage cell-line MonoMac-6 (MM6) (Ziegler-Heitbrock et al, Int. J. Cancer, 41, 456 (1988)) were cultured (37° C./5% CO2) in RPMI-1640 medium supplemented with 1 mM sodium pyruvate, 1×nonessential amino acids, 10 μg/mL insulin, 1 mM oxalacetic acid, 100 units/mL penicillin, 100 μg/mL streptomycin and 10% (v/v) fetal bovine serum. At the start of the experiment, MM6 cells were seeded in 96-well plates at a density of 1>10^5 cells/mL (100 μL per well). Proliferation of the MM6 cells was measured using the Cell Proliferation Reagent WST-1 (Roche Diagnostics Scandinavia AB, Bromma, Sweden) or by cell counting using a microscope. The WST-1 reagent is designed to be used for spectrophotometric quantification of e.g. cell growth in proliferation assays and was used according to the manufacturers' instructions. The wavelength for measuring absorbance was 450 nm. Stock solutions of pemirolast (potassium salt; purchased from American Custom Chemicals Corporation, San Diego, USA) were made in sterile saline. Pioglitazone (HCl salt; purchased from AK Scientific, Inc., Mountain View, Calif., USA) was dissolved in DMSO and then diluted in sterile saline leading to final DMSO concentrations in the MM6 incubations of 0.003%, 0.01% and 0.03% for the final pioglitazone concentrations of 0.1 μM, 0.3 μM and 1 μM, respectively. The effects of treatment with pioglitazone (alone and in combination) on MM6 proliferation were compared with control treatments containing DMSO at concentrations corresponding to the DMSO concentrations used in the different respective pioglitazone treatments. Untreated MM6 cells increased from 1×10^5 cells/mL at the start of the experiment to 1.4×10^5±0.06×10^5 cells/mL and 2.3×10^5±0.10×10^5 cells/mL after 24 and 48 hours, respectively (mean values±sem, n=4 for each of the three time-points). Pemirolast and/or pioglitazone were added at the start of the experiments and 46 hours later the effects of the drugs on MM6 cell proliferation were studied using the WST-1 reagent described above. The WST-1 reagent was added at 44 hours after start of the experiments and the average absorbance of untreated control cells exposed to the WST-1 reagent was 0.89 (n=5).

With `Cc1cccn2c(=O)c(-c3nnn[nH]3)cnc12` [pemirolast] the “MM6 proliferation, of the proliferation of untreated control cells” value (“MM6 proliferation” for short) (10 μM pemirolast) was 101%, the “MM6 proliferation” value (30 μM pemirolast) was 124% and the “MM6 proliferation” value (100 μM pemirolast) was 102%.

`CCc1ccc(CCOc2ccc(CC3SC(=O)NC3=O)cc2)nc1` (stereo not drawn) [pioglitazone] was tested, and the “MM6 proliferation” value (0.1 μM pioglitazone, control with DMSO) was 91%, the “MM6 proliferation” value (0.3 μM pioglitazone, control with DMSO) was 96% and the “MM6 proliferation” value (1 μM pioglitazone, control with DMSO) was 88%.
